We go through 48 compounds from patent US7666875B2, “Hydantoin compounds” (Eisai R&D Management Co., Ltd., priority 2005, dated 2010).

Structures are written as SMILES.

For the first assay, the target named is T1, human T-bet (Homo sapiens, UniProt Q9UL17).
T1 construct: expressed in transfected cells; host or cells: engineered HEK cells (HEKT-bet)
T1 sequence (Q9UL17 1-535): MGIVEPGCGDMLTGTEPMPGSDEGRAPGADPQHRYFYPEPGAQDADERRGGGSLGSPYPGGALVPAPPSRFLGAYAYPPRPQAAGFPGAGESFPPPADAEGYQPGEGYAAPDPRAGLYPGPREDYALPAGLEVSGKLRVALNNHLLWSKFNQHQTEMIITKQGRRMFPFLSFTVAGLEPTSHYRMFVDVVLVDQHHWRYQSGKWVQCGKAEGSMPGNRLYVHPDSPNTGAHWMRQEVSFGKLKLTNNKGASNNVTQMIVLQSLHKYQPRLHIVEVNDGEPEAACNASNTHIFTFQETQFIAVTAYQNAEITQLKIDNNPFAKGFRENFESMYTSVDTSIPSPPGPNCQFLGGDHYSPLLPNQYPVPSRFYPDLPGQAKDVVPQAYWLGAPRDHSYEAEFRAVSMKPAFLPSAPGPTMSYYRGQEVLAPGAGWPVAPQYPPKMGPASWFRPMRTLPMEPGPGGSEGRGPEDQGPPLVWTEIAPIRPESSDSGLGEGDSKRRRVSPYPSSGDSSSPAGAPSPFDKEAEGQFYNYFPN
Kind of assay: HEKT-bet-luc assay (T-bet dependent luciferase reporter in engineered HEK cells). It counts as cell-based. The conditions noted are these: Table 3; HEKT-bet cells, compound 24 hours; IC50 normalized to reference ER-213038; read-out: IC50. In short, it runs like this: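 HEK cells expressing human T-bet and a T-box element–luciferase reporter were treated with compound for 24 h, then luciferase was read by luminescence. IC50 was scaled between uninhibited signal and maximal inhibition, then normalized to a same-plate reference compound multiplied by its established potency.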
A general note: A reporter such as luciferase makes a cellular process visible.
The IC50 is the point on the concentration scale where inhibition reaches its midpoint. For `COCCN1C(=O)N(Cc2cccc(OC)c2)C(=O)C12CCN(Cc1ccccc1OC(F)(F)F)CC2` [Example 103], the IC50 is 1340 nM. The same measure, in the same setting: for `COCCN1C(=O)N(Cc2cccc(OC)c2)C(=O)C12CCN(Cc1cc(F)c(O)c(OC)c1)CC2` [Example 111] the value was 1550 nM; for `COCCN1C(=O)N(Cc2cccc(OC)c2)C(=O)C12CCN(Cc1cc(F)cc3c1OCOC3)CC2` [Example 102], 1320 nM. Regarding `COCCN1C(=O)N(Cc2cccc(OC)c2)C(=O)C12CCN(C/C=C/c1ccc(OC)cc1)CC2` [Example 108], the IC50 was determined as 1470 nM. Still for that read-out and setting: in the case of `COc1cc(CN2CCC3(CC2)C(=O)N(C/C=C/c2ccccc2)C(=O)N3CCn2cccc2)cc(OC)c1` [Example 83] it was 667 nM. For `COCCN1C(=O)N(C/C=C/Cc2cccc(OC)c2)C(=O)C12CCN(Cc1ccccc1)CC2` [Example 89], the IC50 stood at 835 nM. Same read-out and setting: in the case of `COc1cccc(CN2C(=O)N(CCOCc3ccccc3)C3(CCN(Cc4ccccc4)CC3)C2=O)c1` [Example 112] it was 1570 nM; in that of `CCOC(=O)CCCCN1C(=O)N(Cc2cccc(OC)c2)C(=O)C12CCN(Cc1ccccc1)CC2` [Example 104], 1390 nM. Regarding `COc1cc(CN2CCC3(CC2)C(=O)N(C/C=C/c2ccccc2)C(=O)N3CC=C(C)C)cc(OC)c1` [Example 86], the IC50 came to 757 nM. As to `CCN1C(=O)N(Cc2ccc3ccccc3c2)C(=O)C12CCN(Cc1ccc3ccccc3c1)CC2` [Example 95], the IC50 was determined as 970 nM.

Staying with this assay, now noted: Table 4; HEKT-bet cells, compound 24 hours; IC50 normalized to reference ER-213038; read-out: IC50.
Turning to `COCCN1C(=O)N(Cc2cccc(OC)c2)C(=O)C12CCN(Cc1ccc(C)cc1C)CC2` [Example 228], the IC50 came out at 374 nM. Same read-out and setting: in the case of `COc1cccc(CN2C(=O)N(CCCO)C3(CCN(Cc4cc(OC)cc(OC)c4)CC3)C2=O)c1` [Example 285] it was 553 nM.

Take `COCCN1C(=O)N(CCCc2ccccc2OC)C(=O)C12CCN(Cc1ccccc1)CC2` [Example 222]: the half-inhibitory concentration (IC50) was found to be 366 nM. The same measure, in the same setting: in the case of `COCCN1C(=O)N(Cc2ccc3ccccc3c2)C(=O)C12CCN(Cc1cccc(OC)c1)CC2` [Example 166] it was 184 nM; in that of `COCCN1C(=O)N(Cc2cccc(OC)c2)C(=O)C12CCN(Cc1ccc3cc(OC)ccc3c1)CC2` [Example 135], 123 nM; in that of `COCCN1C(=O)N(Cc2cccc(OC)c2)C(=O)C12CCN(Cc1cccc(N3CCCCC3)c1)CC2` [Example 225], 373 nM. On the same count and under the same terms, for `CCN1C(=O)N(CCCc2ccccc2)C(=O)C12CCN(Cc1cccc(OC)c1)CC2` [Example 282] the value was 549 nM. Same read-out and setting: for `COCN1C(=O)N(Cc2cc(OC)cc(OC)c2)C(=O)C12CCN(Cc1cccc(OC)c1)CC2` [Example 292] the value was 576 nM; for `COc1cccc(CN2C(=O)N(Cc3cccc(-n4cccc4)c3)C3(CCN(Cc4cccc5ccccc45)CC3)C2=O)c1` [Example 229], 377 nM; for `COCCN1C(=O)N(Cc2cccc(OC)c2)C(=O)C12CCN(Cc1cccc(-c3ccco3)c1)CC2` [Example 254], 451 nM.

With `COCCN1C(=O)N(Cc2cccc(OC)c2)C(=O)C12CCN(Cc1cccc(C)c1)CC2` [Example 233], the IC50 came out at 386 nM. With `CCN1C(=O)N(CCCc2ccccc2)C(=O)C12CCN(Cc1cc(OC)cc(OC)c1)CC2` [Example 221], the IC50 came to 365 nM. On to `COc1cc(CN2CCC3(CC2)C(=O)N(Cc2cc(OC)cc(OC)c2)C(=O)N3Cc2ccncc2)cc(OC)c1` [Example 145], for which the 50% inhibitory concentration (IC50) stood at 139 nM. As to `COCCN1C(=O)N(Cc2cccc(OC)c2)C(=O)C12CCN(Cc1cccc3c1OCO3)CC2` [Example 210], the IC50 worked out at 333 nM. `COCCN1C(=O)N(C/C=C/c2cccc(C)c2)C(=O)C12CCN(Cc1ccccc1)CC2` [Example 205]: the IC50 was found to be 298 nM.

`COCCN1C(=O)N(Cc2cccc(OC)c2)C(=O)C12CCN(Cc1ccc(F)c(OC)c1)CC2` [Example 278]: the half-maximal inhibitory concentration (IC50) worked out at 542 nM. Turning to `COc1cc(CN2CCC3(CC2)C(=O)N(C/C=C/c2ccccc2)C(=O)N3C)cc(OC)c1` [Example 121], the IC50 came to 25 nM. The same measure, in the same setting: for `COCCN1C(=O)N(Cc2cccc(OC)c2)C(=O)C12CCN(Cc1cccc(-c3ccncc3)c1)CC2` [Example 218] the value was 351 nM; for `CCN1C(=O)N(Cc2cccc(OC)c2)C(=O)C12CCN(Cc1ccc3ccccc3c1)CC2` [Example 197], 270 nM; for `O=C1N(C/C=C/c2ccccc2)C(=O)C2(CCN(Cc3cccc4ccccc34)CC2)N1CCn1cccc1` [Example 251], 447 nM. Same read-out and setting: in the case of `COCCN1C(=O)N(Cc2cccc(OC)c2)C(=O)C12CCN(Cc1cccc3cc[nH]c13)CC2` [Example 267] it was 510 nM; in that of `COCCN1C(=O)N(Cc2cccc(OC)c2)C(=O)C12CCN(Cc1cc(OC)c3c(c1)OCO3)CC2` [Example 244], 432 nM; in that of `COCCN1C(=O)N(Cc2cccc(OC)c2)C(=O)C12CCN(Cc1ccc3ccccc3c1)CC2` [Example 213], 337 nM.

Regarding `COCCN1C(=O)N(Cc2cccc(OC)c2)C(=O)C12CCN(Cc1cccc(N3CCOCC3)c1)CC2` [Example 230], the half-inhibitory concentration (IC50) worked out at 379 nM. For the compound `COCCN1C(=O)N(C/C=C/c2ccccc2C)C(=O)C12CCN(Cc1ccccc1)CC2` [Example 226], the IC50 worked out at 373 nM. Take `COc1cccc(CN2C(=O)N(C)C3(CCN(Cc4cccc5ccccc45)CC3)C2=O)c1` [Example 148]: the half-maximal inhibitory concentration (IC50) was 143 nM. Still for that read-out and setting: in the case of `COCCN1C(=O)N(Cc2cccc(OC)c2)C(=O)C12CCN(Cc1c(OC)ccc3ccccc13)CC2` [Example 129] it was 94 nM; in that of `O=C1N(C/C=C/c2ccccc2)C(=O)C2(CCN(Cc3cccc4ccccc34)CC2)N1Cc1ccccn1` [Example 240], 420 nM; in that of `COCCN1C(=O)N(Cc2cccc(OC)c2)C(=O)C12CCN(Cc1ccccc1C)CC2` [Example 193], 261 nM. `COCCN1C(=O)N(Cc2cc(F)cc(F)c2)C(=O)C12CCN(Cc1cc(OC)cc(OC)c1)CC2` [Example 253]: the IC50 stood at 450 nM. Regarding `COCCN1C(=O)N(Cc2ccc3ccccc3c2)C(=O)C12CCN(Cc1cc(OC)cc(OC)c1)CC2` [Example 151], the IC50 amounted to 148 nM. Same read-out and setting: in the case of `COCCN1C(=O)N(Cc2cccc(N(C)C)c2)C(=O)C12CCN(Cc1ccccc1)CC2` [Example 189] it was 247 nM; in that of `COCCN1C(=O)N(Cc2cccc(OC)c2)C(=O)C12CCN(Cc1c3ccccc3c(C)c3ccccc13)CC2` [Example 175], 200 nM; in that of `C#CCOc1ccc(CN2CCC3(CC2)C(=O)N(Cc2cccc(OC)c2)C(=O)N3CCOC)cc1OC` [Example 261], 490 nM. `COCCN1C(=O)N(Cc2cccc(OC)c2)C(=O)C12CCN(Cc1cc3ccccc3c3ccccc13)CC2` [Example 157]: the IC50 stood at 161 nM. Still for that read-out and setting: for `COc1cccc(CN2C(=O)N(Cc3ccc4c(c3)nnn4C)C3(CCN(Cc4cccc5ccccc45)CC3)C2=O)c1` [Example 231] the value was 385 nM. On the same count and under the same terms, in the case of `COc1cc(CN2CCC3(CC2)C(=O)N(C/C=C/c2ccccc2)C(=O)N3Cc2ccccn2)cc(OC)c1` [Example 143] it was 134 nM; in that of `COCCN1C(=O)N(Cc2cc(OC)ccc2OC)C(=O)C12CCN(Cc1cc(OC)cc(OC)c1)CC2` [Example 215], 348 nM.
